Results taken from PubChem BioAssay AID2060604 (Molecular Pharmacology Branch, DTP, NCI, 2025).
Several values for one entry are separate records, joined by “and”; a condition that tells them apart may be missing. Equal values may be shown once.

Test system: 379773-124-R-J2-PDC complex spheroids, viability % test/control
Experiment: Anticancer human tumor 379773-124-R-J2-PDC patient-derived endometrial carcinoma cell line growth inhibition [CLK]
Settings: for viability, T/C: stronger effect = lower value
In short: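 Patient-derived tumor cells grown as complex spheroids with HUVEC endothelial cells and mesenchymal stem cells, treated with drug combinations. Concentrations descend in half-log steps from near clinical Cmax, or from 10 microM if Cmax unknown.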

[1] = curve of first compound, second compound 0.0316 µM
[2] = curve of first compound, second compound 0.1 µM
[3] = curve of first compound, second compound 0.316 µM
[4] = curve of first compound, second compound 1 µM
[5] = curve of first compound, second compound 3.16 µM
[6] = curve of first compound, second compound 10 µM
[7] = second compound 0.0316 µM, first compound 0.0316 µM
[8] = second compound 0.0316 µM, first compound 0.1 µM
[9] = second compound 0.0316 µM, first compound 0.316 µM
[10] = second compound 0.0316 µM, first compound 1 µM
[11] = second compound 0.0316 µM, first compound 3.16 µM
[12] = second compound 0.0316 µM, first compound 10 µM
[13] = second compound 0.1 µM, first compound 0.0316 µM
[14] = second compound 0.1 µM, first compound 0.1 µM
[15] = second compound 0.1 µM, first compound 0.316 µM
[16] = second compound 0.1 µM, first compound 1 µM
[17] = second compound 0.1 µM, first compound 3.16 µM
[18] = second compound 0.1 µM, first compound 10 µM
[19] = second compound 0.316 µM, first compound 0.0316 µM
[20] = second compound 0.316 µM, first compound 0.1 µM
[21] = second compound 0.316 µM, first compound 0.316 µM
[22] = second compound 0.316 µM, first compound 1 µM
[23] = second compound 0.316 µM, first compound 3.16 µM
[24] = second compound 0.316 µM, first compound 10 µM
[25] = second compound 1 µM, first compound 0.0316 µM
[26] = second compound 1 µM, first compound 0.1 µM
[27] = second compound 1 µM, first compound 0.316 µM
[28] = second compound 1 µM, first compound 1 µM
[29] = second compound 1 µM, first compound 3.16 µM
[30] = second compound 1 µM, first compound 10 µM
[31] = second compound 3.16 µM, first compound 0.0316 µM
[32] = second compound 3.16 µM, first compound 0.1 µM
[33] = second compound 3.16 µM, first compound 0.316 µM
[34] = second compound 3.16 µM, first compound 1 µM
[35] = second compound 3.16 µM, first compound 3.16 µM
[36] = second compound 3.16 µM, first compound 10 µM
[37] = second compound 10 µM, first compound 0.0316 µM
[38] = second compound 10 µM, first compound 0.1 µM
[39] = second compound 10 µM, first compound 0.316 µM
[40] = second compound 10 µM, first compound 1 µM
[41] = second compound 10 µM, first compound 3.16 µM
[42] = second compound 10 µM, first compound 10 µM
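Also: compound exposure lasted seven days before the viability readout.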
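For viability, T/C in this document: 100% = DMSO vehicle control wells.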

## CC(Nc1ccc2c(c1)OCCn1cc(N3C(=O)OCC3C(F)F)nc1-2)C(N)=O (stereo not drawn) + CNC(=O)c1ccc(Nc2nc(OC3CCCC3)c3c(-c4ccc5nc(C)oc5c4)c[nH]c3n2)c(OC)c1
[1]
  IC50: > 10000 nM
[2]
  IC50: < 31.6 nM
[3]
  IC50: < 31.6 nM
[4]
  IC50: < 31.6 nM
[5]
  IC50: < 31.6 nM
[6]
  IC50: < 31.6 nM
[7]
  viability, T/C: 74.7%
[8]
  viability, T/C: 72.8%
[9]
  viability, T/C: 78.1%
[10]
  viability, T/C: 73.9%
[11]
  viability, T/C: 76.3%
[12]
  viability, T/C: 62.8%
[13]
  viability, T/C: 38.7%
[14]
  viability, T/C: 33.6%
[15]
  viability, T/C: 21.3%
[16]
  viability, T/C: 23.2%
[17]
  viability, T/C: 24.6%
[18]
  viability, T/C: 15.3%
[19]
  viability, T/C: 40.3%
[20]
  viability, T/C: 30.3%
[21]
  viability, T/C: 29.1%
[22]
  viability, T/C: 29.2%
[23]
  viability, T/C: 19.1%
[24]
  viability, T/C: 16.7%
[25]
  viability, T/C: 35.5%
[26]
  viability, T/C: 28.9%
[27]
  viability, T/C: 25.1%
[28]
  viability, T/C: 22.4%
[29]
  viability, T/C: 19.9%
[30]
  viability, T/C: 9.04%
[31]
  viability, T/C: 32.5%
[32]
  viability, T/C: 30%
[33]
  viability, T/C: 23%
[34]
  viability, T/C: 22.7%
[35]
  viability, T/C: 18.3%
[36]
  viability, T/C: 11.7%
[37]
  viability, T/C: 32.5%
[38]
  viability, T/C: 28.6%
[39]
  viability, T/C: 23.5%
[40]
  viability, T/C: 18.6%
[41]
  viability, T/C: 22.3%
[42]
  viability, T/C: 14%

## Nc1ccccc1NC(=O)c1ccc(CNC(=O)OCc2cccnc2)cc1
Compound 0.0316 µM
  viability, T/C: 108% and 92.4%
Compound 0.1 µM
  viability, T/C: 100% and 89.7%
Compound 0.316 µM
  viability, T/C: 95.6% and 104%
Compound 1 µM
  viability, T/C: 102% and 96.7%
Compound 3.16 µM
  viability, T/C: 47.8% and 45.6%
Compound 10 µM
  viability, T/C: 8.85% and 7.74%
Curve of compound
  IC50: 3020 nM and 2860 nM

## O=c1[nH]cc(F)c(=O)[nH]1 + CNC(=O)c1ccc(Nc2nc(OC3CCCC3)c3c(-c4ccc5nc(C)oc5c4)c[nH]c3n2)c(OC)c1
[1]
  IC50: > 10000 nM
[2]
  IC50: < 31.6 nM
[3]
  IC50: < 31.6 nM
[4]
  IC50: < 31.6 nM
[5]
  IC50: < 31.6 nM
[6]
  IC50: < 31.6 nM
[7]
  viability, T/C: 86.5%
[8]
  viability, T/C: 76.3%
[9]
  viability, T/C: 80.7%
[10]
  viability, T/C: 70.5%
[11]
  viability, T/C: 70.8%
[12]
  viability, T/C: 54.5%
[13]
  viability, T/C: 50.4%
[14]
  viability, T/C: 35.9%
[15]
  viability, T/C: 31.5%
[16]
  viability, T/C: 33.3%
[17]
  viability, T/C: 29.7%
[18]
  viability, T/C: 28.2%
[19]
  viability, T/C: 41%
[20]
  viability, T/C: 35.2%
[21]
  viability, T/C: 34.5%
[22]
  viability, T/C: 33.7%
[23]
  viability, T/C: 24%
[24]
  viability, T/C: 18.1%
[25]
  viability, T/C: 36.9%
[26]
  viability, T/C: 29.2%
[27]
  viability, T/C: 30.5%
[28]
  viability, T/C: 27.2%
[29]
  viability, T/C: 20.2%
[30]
  viability, T/C: 10.7%
[31]
  viability, T/C: 36.1%
[32]
  viability, T/C: 37.1%
[33]
  viability, T/C: 34.8%
[34]
  viability, T/C: 19.3%
[35]
  viability, T/C: 15.3%
[36]
  viability, T/C: 9.65%
[37]
  viability, T/C: 42.5%
[38]
  viability, T/C: 31.3%
[39]
  viability, T/C: 28.6%
[40]
  viability, T/C: 23.5%
[41]
  viability, T/C: 14.4%
[42]
  viability, T/C: 9.98%

## COC1C=CCC(C)C(C)S(=O)(=O)NC(=O)c2ccc3c(c2)N(CC2CCC21)CC1(CCCc2cc(Cl)ccc21)CO3 (stereo not drawn) + CN1CCN(c2cc(C(=O)Nc3cc4cc(-c5cnn(C)c5)ccc4cn3)ccn2)CC1
[1]
  IC50: 4970 nM
[2]
  IC50: 4750 nM
[3]
  IC50: < 31.6 nM
[4]
  IC50: < 31.6 nM
[5]
  IC50: < 31.6 nM
[6]
  IC50: < 31.6 nM
[7]
  viability, T/C: 87.2%
[8]
  viability, T/C: 97.5%
[9]
  viability, T/C: 74.6%
[10]
  viability, T/C: 86%
[11]
  viability, T/C: 79.7%
[12]
  viability, T/C: 4.02%
[13]
  viability, T/C: 77.2%
[14]
  viability, T/C: 73.5%
[15]
  viability, T/C: 78.7%
[16]
  viability, T/C: 78.2%
[17]
  viability, T/C: 76%
[18]
  viability, T/C: 2.54%
[19]
  viability, T/C: 24.8%
[20]
  viability, T/C: 29.9%
[21]
  viability, T/C: 30.9%
[22]
  viability, T/C: 26.5%
[23]
  viability, T/C: 29.6%
[24]
  viability, T/C: 1.06%
[25]
  viability, T/C: 0.39%
[26]
  viability, T/C: 0.17%
[27]
  viability, T/C: 0.35%
[28]
  viability, T/C: 0.18%
[29]
  viability, T/C: 0.65%
[30]
  viability, T/C: 0.11%
[31]
  viability, T/C: 0.12%
[32]
  viability, T/C: 0.14%
[33]
  viability, T/C: 1.19%
[34]
  viability, T/C: 0.82%
[35]
  viability, T/C: 0.11%
[36]
  viability, T/C: 0.1%
[37]
  viability, T/C: 0.48%
[38]
  viability, T/C: 0.72%
[39]
  viability, T/C: 0.18%
[40]
  viability, T/C: 1.21%
[41]
  viability, T/C: 0.37%
[42]
  viability, T/C: 0.23%
